Tests used:
Format in all cases: physicochemical
[1] = Hygroscopicity of the active pharmaceutical ingredient; conditions: active pharmaceutical ingredient (API)
[2] = XRPD of the mixed powder in the study on the mixing process (crystal form stability); conditions: mixed powder of Example 1, mixing process
[3] = Solubility / biopharmaceutical classification

C=CC(=O)N1CCC([C@@H]2CCNc3c(C(N)=O)c(-c4ccc(Oc5ccccc5)cc4)nn32)CC1 [zanubrutinib, (S)-7-[4-(1-acryloylpiperidine)]-2-(4-phenoxyphenyl)-4,5,6,7-tetrahydropyrazolo[1,5-a]pyrimidine-3-carboxamide]
hygroscopicity [1]: slightly hygroscopic
crystal form of zanubrutinib in the process (XRPD) [2]: remained unchanged
class of the biopharmaceutical classification system [3]: class II
solubility [3]: pH-dependent

Source: patent US20220241285A1, “ORAL CAPSULE AND PREPARATION METHOD THEREFOR” (BEIGENE SWITZERLAND GMBH, priority 2019, published 2022)
